From ChEMBL document CHEMBL1201862, “PubChem BioAssay data set” (2004)
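96-well plates; 48 h exposure; 5 concentrations. Endpoints by linear interpolation between flanking doses. Not reached: highest tested concentration assigned. GI50 = concentration required for 50% inhibition of growth.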 Calls of active or inactive are those of the source. Rule as the data show it: active = GI50 up to about 1.1 µM and inactive = higher.

Assays:
Assay in all cases: NCI-60 cell line screen, 48 h
[1] = tested on: 786-0
[2] = tested on: A498
[3] = tested on: A549
[4] = tested on: BT-549
[5] = tested on: CAKI-1
[6] = tested on: CCRF-CEM
[7] = tested on: COLO 205
[8] = tested on: DU-145
[9] = tested on: HCC 2998
[10] = tested on: HCT-116
[11] = tested on: HCT-15
[12] = tested on: HL-60
[13] = tested on: HOP-62
[14] = tested on: HOP-92
[15] = tested on: HT-29
[16] = tested on: Hs-578T
[17] = tested on: K562
[18] = tested on: KM12
[19] = tested on: LOX IMVI
[20] = tested on: M14
[21] = tested on: MCF7
[22] = tested on: MDA-MB-231
[23] = tested on: MDA-MB-435
[24] = tested on: MDA-N
[25] = tested on: MOLT-4
[26] = tested on: NCI-H23
[27] = tested on: NCI-H460
[28] = tested on: NCI/ADR-RES
[29] = tested on: OVCAR-3
[30] = tested on: OVCAR-4
[31] = tested on: OVCAR-5
[32] = tested on: OVCAR-8
[33] = tested on: PC-3
[34] = tested on: RPMI-8226
[35] = tested on: RXF 393
[36] = tested on: SF-268
[37] = tested on: SF-295
[38] = tested on: SF-539
[39] = tested on: SK-MEL-28
[40] = tested on: SK-MEL-5
[41] = tested on: SK-OV-3
[42] = tested on: SN12C
[43] = tested on: SNB-19
[44] = tested on: SNB-75
[45] = tested on: SR
[46] = tested on: SW-620
[47] = tested on: T47D
[48] = tested on: TK-10
[49] = tested on: U-251
[50] = tested on: UACC-257
[51] = tested on: UACC-62
[52] = tested on: UO-31
[53] = tested on: ACHN
[54] = tested on: EKVX
[55] = tested on: IGROV-1
[56] = tested on: Malme-3M
[57] = tested on: NCI-H226
[58] = tested on: NCI-H522
[59] = tested on: SK-MEL-2

Measured: GI50

c1ccc(C2SCC3=Nc4ccccc4CN32)cc1 (stereo not drawn)
51.4 µM: [11]
active: [29] 0.78 µM
inactive: [1] 21.3 µM | [2] > 100 µM | [3] 53.8 µM | [4] > 100 µM | [5] > 100 µM | [6] 34.2 µM | [7] 19.4 µM | [8] 24.9 µM | [9] 61.7 µM | [10] 14.8 µM | [12] 23.6 µM | [13] 26.1 µM | [14] 50.8 µM | [15] 17.8 µM | [16] 73.8 µM | [17] 33.5 µM | [18] 43.5 µM | [19] 36 µM | [20] 31 µM | [21] 26.9 µM | [22] > 100 µM | [23] 29.7 µM | [24] 87.7 µM | [25] 34.7 µM | [26] 16.6 µM | [27] 54 µM | [28] 17.5 µM | [30] 78.2 µM | [31] 25.8 µM | [32] 18.2 µM | [33] 25.9 µM | [34] 39.8 µM | [35] 10.8 µM | [36] 78.5 µM | [37] 14.7 µM | [38] 28.4 µM | [39] 50.4 µM | [40] 14.4 µM | [41] 23.4 µM | [42] > 100 µM | [43] 13.4 µM | [44] 30.5 µM | [45] 31.4 µM | [46] 87.5 µM | [47] 25.8 µM | [48] 75.2 µM | [49] 63 µM | [50] 94.6 µM | [51] 60.1 µM | [52] 29.9 µM

CC1(C)C2CC(=O)C1(C)C(OCc1ccccc1)C2 (stereo not drawn)
inactive: [1] 70 µM | [2] > 100 µM | [3] 74.3 µM | [53] > 100 µM | [4] 54.6 µM | [5] 40.6 µM | [6] 26.1 µM | [7] 29.6 µM | [8] > 100 µM | [54] > 100 µM | [9] 59.8 µM | [10] 25.1 µM | [12] 24.4 µM | [13] 86.1 µM | [15] 40.6 µM | [16] 22 µM | [55] > 100 µM | [17] 22.2 µM | [18] 60.8 µM | [19] 22.1 µM | [20] 24.8 µM | [21] 64.7 µM | [22] 44 µM | [23] 47 µM | [24] 47.3 µM | [25] 16.3 µM | [56] 32.9 µM | [57] > 100 µM | [26] 27.2 µM | [27] 33.3 µM | [58] 22.2 µM | [28] 28.6 µM | [29] 62.7 µM | [31] 29.4 µM | [32] > 100 µM | [33] 34.4 µM | [34] 27.7 µM | [36] > 100 µM | [37] 68.7 µM | [38] > 100 µM | [39] 94.2 µM | [59] > 100 µM | [40] 26.3 µM | [41] 54.8 µM | [42] 36.6 µM | [43] 88.3 µM | [44] 34.2 µM | [45] 25.1 µM | [46] 29.6 µM | [47] 40.4 µM | [48] 23.4 µM | [49] 48.3 µM | [50] 74 µM | [51] 62.5 µM | [52] 62.7 µM
26.8 µM: [11]
